# Columns and labels:
# [1] = test system: senescent cells (human fibroblasts); experiment: Cell proliferation by counting live cells (trypan blue), senescent cells; format: cell-based; conditions: serum-starved 2 days, counted day 1, 2, 4, 30 μM LPA, 300 μM ACI, 10 mM AMPKI, 10 mM AICAR
# Description: (§1) Human fibroblasts were prepared by primary culture of foreskin of a newborn baby (Boyce and Ham, 1983). The primary culture was performed in DMEM supplemented with 10% FBS and 1% antibiotics. The protein contents of young cells from the early stage of sub-culture, with a population doubling (PD) of less than 25, were compared to those of at least PD 65-70 senescent cells. […] In senescent cells, the activity of beta-galactosidase was increased and cell proliferation was reduced (Yeo et al., 2000).
# (§2) Prior to LPA and ACI treatment, cells were grown for 1-2 days to 60-70% sub-confluence in DMEM-containing culture medium, and then serum-starved to quiescence (that is Go/G1 arrest) by incubation in a serum-free medium containing 0.1% bovine serum albumin (BSA) for 2 days. Young and senescent cells were treated with LPA, ACI, LPA+ACI, AMPKI and AICAR, respectively. Live cells were measured after staining the cells with trypan blue on day 1, day 2 and day 4 to confirm cell proliferation.
# (§3) Cell proliferation and cAMP level were increased by LPA in senescent cells (Yeo et al., 2002). The AC inhibitor (ACI) was added to reduce cAMP which had been increased by LPA. And then, cell proliferation was investigated. Cells were cultured in serum-free medium for 2 days to arrest them in G0/G1 phase. Then, the cells were treated with LPA, ACI or LPA+ACI. Total cell number was measured on day 1, day 2 and day 4, or the cells entered into S phase were counted to evaluate cell proliferation. When young cells were treated with 300 μM of ACI, cell proliferation was reduced, compared with control (FIG. 1A). In the meantime, when senescent cells were treated with 300 μM of ACI, cell proliferation was increased, compared with control (FIG. 1B).
# [2] = test system: young cells (human fibroblasts); experiment: Cell proliferation by counting live cells (trypan blue), young cells; format: cell-based; conditions: serum-starved 2 days, counted day 1, 2, 4, 30 μM LPA, 300 μM ACI, 10 mM AMPKI, 10 mM AICAR
# Description: as §1, §2, §3
# [3] = test system: fibroblasts (young and senescent cells); experiment: Soft agar assay (colony formation); format: cell-based, human; conditions: 30 μM LPA, 300 μM ACI, three weeks
# Description: Young and senescent cells were distributed in DMEM containing 10% bovine serum and 0.3% top agar, which were loaded on 0.6% basic agar layer in 60 mm culture dish. The cells treated with 30 μM LPA (L), 300 μM ACI (A), or both LPA and ACI for three weeks were fixed with 70% ethanol, and so was the control treated with nothing. After staining the cells with trypan blue, colonies were counted under microscope. HeLa and HepG2 cancer cell lines were distributed on soft agar dish, as positive controls, followed by treatment with LPA, ACI, or LPA+ACI. Colony formation was also analysed. The number of colonies formed in soft agar dish was plotted as mean+/− standard deviation and each measurement was repeated at least three times.
# LPA and ACI were treated to fibroblast and cancer cell groups, followed by soft agar assay. […] From the above results, it was confirmed that LPA and ACI induce normal cell proliferation but not cause any transformation of cells to turn them into tumor.
# [4] = test system: p21waf1/cip1; experiment: Immuno-blotting of p21waf1/cip1; format: cell-based, human; conditions: for p21 expression after suppressing PKA: senescent cells pre-treated with 10 mM PKA inhibitor Rp-cAMP for one hour; for p21 expression (immuno-blotting): senescent cells, 30 μM LPA, 300 μM ACI, 10 mM AMPKI, 10 mM AICAR
# Description: (A) and (B): Young and senescent cells were serum-starved for 2 days, followed by treatment with 10 mM of AMPK inhibitor […]) or 10 mM of AMPK activator AICAR(B) for 4 days. Proteins were extracted from the treated cells and the levels of AMPKα and p-Thr172-AMPKα, total p53, p-Ser15-p53 and […] measured by immuno-blotting. (C) and (D): Young cells (C) and senescent cells (D) were treated with 10 mM AMPKI or 10 mM AICAR and cultured for 4 days, followed by measurement of cell proliferation by cell counting. At this time, the experiment was repeated three times (p<0.001). (A) and (B) are photographs illustrating the results of immuno-blotting. Precisely, sub-cultured young cells (PD 18: A) and senescent cells (PD 64: B) were treated with 30 μM of LPA […] and ACI singly or together, followed by further culture for 1, 2, and 4 days. Proteins were extracted from the cultured cells and the levels of AMPKα, […] β-actin were quantified by immuno-blotting. (A) and (B) are photographs illustrating the results of immuno-blotting. Precisely, senescent cells (PD 64) were pre-treated with 10 mM of PKA inhibitor Rp-cAMP for one hour, followed by treatment with LPA(A) or ACI(B). After culturing the cells for 1, 2, and 4 days, proteins were extracted from the cultured cells and the levels of AMPKα, […] β-actin were quantified by immuno-blotting using 45 μg of the protein. To analyse protein expression, human fibroblasts were lysed in cold lysis buffer (25 mM Hepes, pH 8.0, 150 mM NaCl, 1 mM EDTA, 1 mM Na3VO4, 1 mM NaF, 1% Triton X-100 and protease inhibitors), followed by centrifugation at 4° C. at 9,000 rpm for 10 minutes to obtain supernatant. Protein in the extract was quantified […]. SDS-PAGE electrophoresis was performed with equal amount of the protein (45 μg) to separate. The separated protein was transferred onto NC membrane from the electrophoresis gel. Non-specific protein binding was blocked by blocking the blot (transferred NC membrane) using TTBS […] containing 5% skim milk for one hour. Then, antigen-antibody reaction was induced with diluted primary antibody at 4° C. for overnight. The blot was washed with TTBS, followed by reaction with horseradish peroxidase conjugated anti-IgGs diluted in TTBS containing 5% skim milk (1:5000) at room temperature for one hour. The blot was washed again with TTBS to eliminate non-specific binding of antigen-antibody. Photographs were developed/printed on X-ray film (Kodak) using ECL kit (Pierce) containing peroxidase substrate to identify each protein.
Compound,cell proliferation (cell number) compared with control [1],cell proliferation (cell number) compared with control [2],colony formation in soft agar (transformation) [3],p21 expression after suppressing PKA [4],p21 expression (immuno-blotting) [4]
"Nc1ncnc2c1ncn2C1CCCO1 (stereo not shown) [ACI, 9-(tetrahydro-2′-furyl)adenine]",increased,reduced,did not form any colony,not changed,reduced
lysophosphatidic acid [LPA],increase,increased,did not form any colony,not changed at all,reduced
